From patent publication US20260191982A1, “ANTI-BASAL CELL ADHESION MOLECULE ANTIBODY-DRUG CONJUGATE” (Genome & Company, Inc., priority 2022, published 2026)
Non-standard residues stand in square brackets, D forms with d. Residues, ends and D or L forms follow the SMILES beside them. Groups on a side chain read outwards from the residue. *: point of attachment. DM1Mal(CH2)2CO = COc1cc2cc(c1Cl)N(C)C(=O)C[C@H](OC(=O)[C@H](C)N(C)C(=O)CCSC1CC(=O)N(CCC(=O)*)C1=O)[C@]1(C)O[C@H]1[C@H](C)[C@@H]1C[C@@](O)(NC(=O)O1)[C@H](OC)/C=C/C=C(\C)C2; X2 = CC(=O)N[C@@H](CSC1CC(=O)N(CCC(=O)*)C1=O)C(=O)O; Dolaproine = CO[C@@H]([C@@H]1CCCN1)[C@@H](C)C(=O)O; Dil = CC[C@H](C)[C@H](NC)[C@@H](CC(=O)O)OC; NMe2Val = CC(C)[C@@H](C(=O)*)N(C)C; PEG5 = NCCOCCOCCOCCOCCOCCC(=O)O; Cit = NC(=O)NCCC[C@H](N)C(=O)O; PEG4 = NCCOCCOCCOCCOCCC(=O)O

Target: T1, Cathepsin B (Homo sapiens, UniProt P07858)
T1 construct: purchased R&D Systems, Bio-Techne AG 953-CY-010
Experiment: Cat B-induced cleavage, in vitro enzymatic cleavage assay with UHPLC-MS/MS
Format: biochemical
Conditions: for Ratio (T1/2 Compound/T1/2 Reference): versus Cys-MC-Val-Cit-PABC-MMAF; for half-life at 10 μM: human, recombinant human Cathepsin B (activated), 10 μM test compound, Cathepsin B 2 μg/mL, MES buffer pH 5.0, 37° C., read-out: T1/2 Compound
Method: Cat B-induced cleavage of the antibody-drug conjugates can be evaluated according to the in vitro enzymatic cleavage assay using recombinant human Cathepsin B (commercially acquired from R&D Systems, Bio-Techne AG, cat #. 953-CY-010 in the form of a precursor) and UHPLC-MS/MS analysis.
Briefly, the enzyme is reconstituted in 25 mM 2-(N-morpholino) ethanesulfonic acid (MES) buffer adjusted at pH 5.0 with a 1M NaOH solution and then activated with a […] solution of Dithiothreitol (DDT) at room temperature for at least 15 min. The in vitro enzymatic assay is conducted at 37° C. with the test compound at a concentration of 10 μM (when the test compound is a linker according to the present invention wherein the maleimide group has been quenched in the presence of acetyl-cysteine (Ac-Cys-OH)) or 2.5 μM (when the test compound is an antibody-drug conjugate) in the presence of activated recombinant human Cathepsin B enzyme at 2 μg/mL in a 25 mM MES buffer pH 5.0. The enzymatic cleavage reaction is stopped for each defined time point by mixing a 1/10 ratio volume of acetonitrile+0.1% formic acid (FA) containing an internal standard (warfarine at 0.5 μM). Analysis is conducted using a Waters Acquity UPLC System coupled to a Waters Xevo TQ triple quad mass spectrometer. UHPLC is conducted with a HSS T3 1.8 μm 50×2.1 mm column (Waters) heated at 45° C. and fitted with 2 μm insert filter pre-column (Waters), and solvent systems A1 (H2O+0.1% FA) and B1 (acetonitrile+0.1% FA) at a flow rate of 0.6 mL/min and a 5-95% gradient of B1 over 2.0 min. MS/MS is performed using electrospray ionization (ESI) interface in positive mode and specific MRM transitions for each compound.
The propensity of compounds 1-13 to be cleaved by Cathepsin B was evaluated according to an in vitro enzymatic cleavage assay using recombinant human Cathepsin B and UHPLC-MS/MS analysis as described in Section 2.3.5 above.

SMILES: CC[C@H](C)[C@@H]([C@@H](CC(=O)N1CCC[C@H]1[C@H](OC)[C@@H](C)C(=O)N[C@@H](Cc1ccccc1)C(=O)N[C@@H](CCCNC(=N)N)C(=O)N[C@@H](CCCCNC(=O)CCOCCOCCOCCOCCOCCNC(=O)CCN1C(=O)CC(SC[C@H](NC(C)=O)C(=O)O)C1=O)C(=O)N[C@@H](Cc1ccccc1)C(=O)O)OC)N(C)C(=O)[C@@H](NC(=O)[C@H](C(C)C)N(C)C)C(C)C (stereo partly drawn) [compound 1, AF-Arg-Lys(PEG4-Mal-Cys-Ac)-Phe-OH] (NMe2Val-V[Dil][Dolaproine]FRK([PEG5-X2])F-OH)
- Ratio (T1/2 Compound/T1/2 Reference): 0.12

SMILES: CC[C@H](C)[C@@H]([C@@H](CC(=O)N1CCC[C@H]1[C@H](OC)[C@@H](C)C(=O)N[C@@H](Cc1ccccc1)C(=O)N[C@@H](CCCNC(=N)N)C(=O)N[C@@H](Cc1ccccc1)C(=O)N[C@@H](CCCCNC(=O)CCOCCOCCOCCOCCNC(=O)CCN1C(=O)CC(SC[C@H](NC(C)=O)C(=O)O)C1=O)C(=O)O)OC)N(C)C(=O)[C@@H](NC(=O)[C@H](C(C)C)N(C)C)C(C)C (stereo partly drawn) [compound 3, AF-Arg-Phe-Lys(PEG4-Mal-Cys-Ac)-OH] (NMe2Val-V[Dil][Dolaproine]FRFK([PEG4-X2])-OH)
- Ratio (T1/2 Compound/T1/2 Reference): 0.11

SMILES: COc1cc2cc(c1Cl)N(C)C(=O)C[C@H](OC(=O)[C@H](C)N(C)C(=O)CCSC1CC(=O)N(CC3CCC(C(=O)N[C@@H](CCCNC(N)=O)C(=O)N[C@@H](CCCCNC(=O)CCOCCOCCOCCOCCOCCNC(=O)CN4C(=O)CC(SC[C@H](NC(C)=O)C(=O)O)C4=O)C(=O)N[C@@H](Cc4ccc(O)cc4)C(=O)O)CC3)C1=O)[C@]1(C)O[C@H]1[C@H](C)[C@@H]1C[C@@](O)(NC(=O)O1)[C@H](OC)/C=C/C=C(\C)C2 (stereo partly drawn) [compound 12, DM1-Mcc-Cit-Lys(PEG5-Mal-Cys-Ac)-Tyr-OH]
- half-life at 10 μM: < 1 min
- Ratio (T1/2 Compound/T1/2 Reference): 0.00004

SMILES: COc1cc2cc(c1Cl)N(C)C(=O)C[C@H](OC(=O)[C@H](C)N(C)C(=O)CCSC1CC(=O)N(CCC(=O)N[C@@H](Cc3ccccc3)C(=O)N[C@@H](CCCCN)C(=O)N[C@@H](CCCCNC(=O)CCOCCOCCOCCOCCNC(=O)CCN3C(=O)CC(SC[C@H](NC(C)=O)C(=O)O)C3=O)C(=O)N[C@@H](Cc3ccccc3)C(=O)O)C1=O)[C@]1(C)O[C@H]1[C@H](C)[C@@H]1C[C@@](O)(NC(=O)O1)[C@H](OC)/C=C/C=C(\C)C2 (stereo partly drawn) [compound 5, DM1-Mal-Phe-Lys-Lys(PEG4-Mal-Cys-Ac)-Phe-OH] ({DM1Mal(CH2)2CO}-FKK([PEG4-X2])F-OH)
- Cat B-induced drug release, times faster than reference (compared to Cys-MC-Val-Cit-PABC-MMAF): 20 times
- Ratio (T1/2 Compound/T1/2 Reference): 0.05

SMILES: CC[C@H](C)[C@@H]([C@@H](CC(=O)N1CCC[C@H]1[C@H](OC)[C@@H](C)C(=O)N[C@@H](Cc1ccccc1)C(=O)N[C@@H](CCCNC(N)=O)C(=O)N[C@@H](CCCCNC(=O)CCOCCOCCOCCOCCNC(=O)CCN1C(=O)CC(SC[C@H](NC(C)=O)C(=O)O)C1=O)C(=O)N[C@@H](Cc1ccccc1)C(=O)O)OC)N(C)C(=O)[C@@H](NC(=O)[C@H](C(C)C)N(C)C)C(C)C (stereo partly drawn) [compound 8, AF-Cit-Lys(PEG4-Mal-Cys-Ac)-Phe-OH] (NMe2Val-V[Dil][Dolaproine]F[Cit]K([PEG4-X2])F-OH)
- Ratio (T1/2 Compound/T1/2 Reference): 0.09

SMILES: COc1cc2cc(c1Cl)N(C)C(=O)C[C@H](OC(=O)[C@H](C)N(C)C(=O)CCSC1CC(=O)N(CCC(=O)N[C@@H](Cc3ccccc3)C(=O)N[C@@H](CCCNC(N)=O)C(=O)N[C@@H](CCCCNC(=O)CCOCCOCCOCCOCCNC(=O)CCN3C(=O)CC(SC[C@H](NC(C)=O)C(=O)O)C3=O)C(=O)N[C@@H](Cc3ccccc3)C(=O)O)C1=O)[C@]1(C)O[C@H]1[C@H](C)[C@@H]1C[C@@](O)(NC(=O)O1)[C@H](OC)/C=C/C=C(\C)C2 (stereo partly drawn) [compound 6, DM1-Mal-Phe-Cit-Lys(PEG4-Mal-Cys-Ac)-Phe-OH] ({DM1Mal(CH2)2CO}-F[Cit]K([PEG4-X2])F-OH)
- Ratio (T1/2 Compound/T1/2 Reference): 0.02

SMILES: COc1cc2cc(c1Cl)N(C)C(=O)C[C@H](OC(=O)[C@H](C)N(C)C(=O)CCSC1CC(=O)N(CC3CCC(C(=O)N[C@@H](Cc4ccccc4)C(=O)N[C@@H](CCCNC(N)=O)C(=O)N[C@@H](CCCCNC(=O)CCOCCOCCOCCOCCOCCNC(=O)CN4C(=O)CC(SC[C@H](NC(C)=O)C(=O)O)C4=O)C(=O)N[C@@H](Cc4ccc(O)cc4)C(=O)O)CC3)C1=O)[C@]1(C)O[C@H]1[C@H](C)[C@@H]1C[C@@](O)(NC(=O)O1)[C@H](OC)/C=C/C=C(\C)C2 (stereo partly drawn) [compound 11, DM1-Mcc-Phe-Cit-Lys(PEG5-Mal-Cys-Ac)-Tyr-OH]
- half-life at 10 μM: < 1 min
- Ratio (T1/2 Compound/T1/2 Reference): 0.005

SMILES: COc1cc2cc(c1Cl)N(C)C(=O)C[C@H](OC(=O)[C@H](C)N(C)C(=O)CCSC1CC(=O)N(CCC(=O)N[C@@H](Cc3ccccc3)C(=O)N[C@@H](CCCNC(N)=O)C(=O)N[C@@H](Cc3ccccc3)C(=O)N[C@@H](CCCCNC(=O)CCOCCOCCOCCOCCNC(=O)CCN3C(=O)CC(SC[C@H](NC(C)=O)C(=O)O)C3=O)C(=O)O)C1=O)[C@]1(C)O[C@H]1[C@H](C)[C@@H]1C[C@@](O)(NC(=O)O1)[C@H](OC)/C=C/C=C(\C)C2 (stereo partly drawn) [compound 7, DM1-Mal-Phe-Cit-Phe-Lys(PEG4-Mal-Cys-Ac)-OH] ({DM1Mal(CH2)2CO}-F[Cit]FK([PEG4-X2])-OH)
- Ratio (T1/2 Compound/T1/2 Reference): 0.09
